These results are taken from PubChem BioAssay AID248 (DTP/NCI, 2004).

This assay relates to L1210 leukemia ip in BDF1 mice, survival T/C. The assay can be described thus: NCI In Vivo Anticancer Drug Screen. Data for tumor model L1210 Leukemia (intraperitoneal) in B6D2F1 (BDF1) mice. Particulars: endpoint: mean survival time, higher = longer survival. In short, it runs like this:
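Each compound was tested against a transplantable tumor grown in mice. The endpoint was survival, with treated animals benchmarked against vehicle controls as a simple ratio.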

[1] abbreviates: dose: 100.0 mg/kg/injection, schedule: Q01DX009 (ip), vehicle: saline sonified.
[2] abbreviates: dose: 100.0 mg/kg/injection, schedule: Q04DX003 (ip), vehicle: saline sonified.
[3] abbreviates: dose: 200.0 mg/kg/injection, schedule: Q04DX003 (ip), vehicle: saline sonified.
Setting [4] is: dose: 400.0 mg/kg/injection, schedule: Q04DX003 (ip), vehicle: saline sonified.
The mark [5] stands for this setting: dose: 100.0 mg/kg/injection, schedule: Q01DX009 (ip), vehicle: Klucel (hydroxypropylcellulose) (HPC).
[6] abbreviates: dose: 200.0 mg/kg/injection, schedule: Q01DX009 (ip), vehicle: Klucel (hydroxypropylcellulose) (HPC).
[7] abbreviates: dose: 400.0 mg/kg/injection, schedule: Q01DX009 (ip), vehicle: Klucel (hydroxypropylcellulose) (HPC).
[8] abbreviates: dose: 100.0 mg/kg/injection, schedule: Q04DX002 (ip), vehicle: Klucel (hydroxypropylcellulose) (HPC).
Setting [9] is: dose: 200.0 mg/kg/injection, schedule: Q04DX002 (ip), vehicle: Klucel (hydroxypropylcellulose) (HPC).
[10] abbreviates: dose: 400.0 mg/kg/injection, schedule: Q04DX002 (ip), vehicle: Klucel (hydroxypropylcellulose) (HPC).
Setting [11] is: dose: 25.0 mg/kg/injection, schedule: Q01DX009 (ip), vehicle: saline.
[12] abbreviates: dose: 50.0 mg/kg/injection, schedule: Q01DX009 (ip), vehicle: saline.
Where [13] appears, read: dose: 100.0 mg/kg/injection, schedule: Q01DX009 (ip), vehicle: saline.
Setting [14] is: dose: 100.0 mg/kg/injection, schedule: Q04DX003 (ip), vehicle: saline.
The mark [15] stands for this setting: dose: 200.0 mg/kg/injection, schedule: Q04DX003 (ip), vehicle: saline.
The mark [16] stands for this setting: dose: 100.0 mg/kg/injection, schedule: Q01DX009 (ip), vehicle: saline with Tween-80.
Setting [17] is: dose: 200.0 mg/kg/injection, schedule: Q01DX009 (ip), vehicle: saline with Tween-80.
[18] abbreviates: dose: 400.0 mg/kg/injection, schedule: Q01DX009 (ip), vehicle: saline with Tween-80.
Where [19] appears, read: dose: 100.0 mg/kg/injection, schedule: Q01DX001 (ip), vehicle: saline.
Setting [20] is: dose: 200.0 mg/kg/injection, schedule: Q01DX001 (ip), vehicle: saline.
Setting [21] is: dose: 400.0 mg/kg/injection, schedule: Q01DX001 (ip), vehicle: saline.
Setting [22] is: dose: 100.0 mg/kg/injection, schedule: Q04DX002 (ip), vehicle: saline with Tween-80.
[23] abbreviates: dose: 200.0 mg/kg/injection, schedule: Q04DX002 (ip), vehicle: saline with Tween-80.
Where [24] appears, read: dose: 400.0 mg/kg/injection, schedule: Q04DX002 (ip), vehicle: saline with Tween-80.
Setting [25] is: dose: 100.0 mg/kg/injection, schedule: Q01DX001 (ip), vehicle: saline with Tween-80.
Where [26] appears, read: dose: 200.0 mg/kg/injection, schedule: Q01DX001 (ip), vehicle: saline with Tween-80.
Setting [27] is: dose: 400.0 mg/kg/injection, schedule: Q01DX001 (ip), vehicle: saline with Tween-80.

Values joined by “and” are separate entries in the source; they are usually repeats but may differ in a detail not shown here. Equal values may be shown once. Toxic doses and inconclusive results are not listed.

Regarding `CCOC(=O)C(O)c1cccc(OC)c1` (configuration not stated), the T/C is, setting by setting: under setting [1], 92 % of control; under setting [2], 97 % of control; under setting [3], 94 % of control; (dose: 400.0 mg/kg/injection, schedule: Q01DX009 (ip), vehicle: saline sonified) 89 % of control; under setting [4], 103 % of control.
Consider `COC(=O)/C=C\C=C\C(=O)OC`, for which the T/C was 95 % of control (dose: 50.0 mg/kg/injection, schedule: Q01DX001 (ip), vehicle: carboxymethylcellulose (CMC)); 94 % of control (dose: 100.0 mg/kg/injection, schedule: Q01DX001 (ip), vehicle: carboxymethylcellulose (CMC)); 98 % of control (dose: 200.0 mg/kg/injection, schedule: Q01DX001 (ip), vehicle: carboxymethylcellulose (CMC)); 98 % of control (dose: 400.0 mg/kg/injection, schedule: Q01DX001 (ip), vehicle: carboxymethylcellulose (CMC)).
Regarding `CCOc1ccc(/C=N/NC(=O)COCC(=O)N/N=C/c2ccc(OCC)c(OC)c2)cc1OC`, the T/C was 92 % of control under setting [5], 87 % of control under setting [6] and 103 % of control under setting [7].
Regarding `CC(C)(C)c1ccc(Oc2ccc([N+](=O)[O-])cc2[N+](=O)[O-])c(Br)c1`, the T/C is 96 % of control under setting [5]; 104 % of control under setting [8]; 96 % of control under setting [6]; 108 % of control under setting [9]; 96 % of control under setting [7]; 111 % of control under setting [10].
Regarding `CC(NC(=O)c1ccccc1)C(=O)NC(CSC(c1ccccc1)c1ccccc1)C(=O)O` (configuration not stated), the T/C is 102 % of control under setting [11]; 100 % of control under setting [12]; 93 % of control and 90 % of control under setting [13]; 94 % of control under setting [14]; 100 % of control under setting [15].
With `OCC1CC=CCC1` (configuration not stated), the T/C is 105 % of control under setting [16], 106 % of control under setting [17] and 117 % of control under setting [18].
For the compound `O=C(C/C(=N/O)c1ccccc1)c1ccccc1`, the T/C reads like this: (dose: 50.0 mg/kg/injection, schedule: Q01DX001 (ip), vehicle: saline) 98 % of control; under setting [19], 102 % of control; under setting [20], 96 % of control; under setting [21], 90 % of control.
Turning to `CCOC(=O)c1ccc(NC(=O)Nc2ccc(F)c([N+](=O)[O-])c2)cc1`, the T/C reads like this: under setting [5], 95 % of control; under setting [6], 101 % of control; under setting [7], 96 % of control.
Take `C=C1C(=O)OC2CC(C)C(C(O)CC(C)O)=CCC12` (configuration not stated): the T/C reads like this: (dose: 50.0 mg/kg/injection, schedule: Q01DX001 (ip), vehicle: water) 95 % of control; (dose: 100.0 mg/kg/injection, schedule: Q01DX001 (ip), vehicle: water) 95 % of control.
Take `NC(C(=O)O)C(N)(CC(=O)O)C(=O)O` (configuration not stated): the T/C is 94 % of control under setting [22], 94 % of control under setting [23] and 105 % of control under setting [24].
Turning to `O=C(NCCBr)C(F)(F)F`, the T/C under setting [11] is 113 % of control; the T/C under setting [12] is 103 % of control; the T/C under setting [19] is 104 % of control; the T/C under setting [13] was 105 % of control; the T/C under setting [20] was 109 % of control; the T/C under setting [21] is 112 % of control.
`Cc1ccc2c(c1)C(c1ccccc1)(c1ccccc1)OC2=O`: the T/C under setting [16] is 98 % of control, the T/C under setting [17] was 98 % of control and the T/C under setting [18] was 103 % of control.
As to `CCCCn1cnc2c(=S)nc(N)[nH]c21`, the T/C reads like this: (dose: 3.3 mg/kg/injection, schedule: Q01DX Z (ip), vehicle: methylcellulose (MC)) 115 % of control; (dose: 5.0 mg/kg/injection, schedule: Q01DX Z (ip), vehicle: methylcellulose (MC)) 118 % of control; (dose: 19.0 mg/kg/injection, schedule: Q04DX003 (ip), vehicle: saline with Tween-80) 111 % of control; (dose: 66.0 mg/kg/injection, schedule: Q04DX003 (ip), vehicle: saline with Tween-80) 164 % of control.
In the case of `CC(=O)OC1C2C=CC(C2)C1OC(C)=O` (configuration not stated), the T/C runs as follows: (dose: 100.0 mg/kg/injection, schedule: Q01DX001 (ip), vehicle: other) 100 % of control; (dose: 200.0 mg/kg/injection, schedule: Q01DX001 (ip), vehicle: other) 106 % of control; (dose: 400.0 mg/kg/injection, schedule: Q01DX001 (ip), vehicle: other) 112 % of control.
For `CCC[N+](C)(C)C1CCCCC1`, under “dose: 75.0 mg/kg/injection, schedule: Q01DX001 (ip), vehicle: saline”, the T/C was 96 % of control and 94 % of control.
Turning to `COc1cc2ccc3c(c2cc1OC)C=[N+](C)CC3`, the T/C is 120 % of control under setting [1]; 98 % of control under setting [2]; 114 % of control (dose: 200.0 mg/kg/injection, schedule: Q01DX009 (ip), vehicle: saline sonified); 93 % of control under setting [3]; 102 % of control under setting [4].
Regarding `COC(=O)C1CC23CCCC12CC3` (configuration not stated), the T/C is, setting by setting: (dose: 50.0 mg/kg/injection, schedule: Q04DX002 (ip), vehicle: saline with Tween-80) 92 % of control; under setting [22], 103 % of control; under setting [23], 92 % of control.
Consider `COc1ccc(NC(=O)Nc2ccc(NC(C)=O)cc2)cc1`, for which the T/C under setting [16] is 86 % of control and the T/C under setting [17] is 92 % of control.
`CCCP(=O)(CCC)C1CCCCC1`: the T/C is, setting by setting: under setting [25], 99 % of control; under setting [26], 98 % of control; under setting [27], 86 % of control.
As to `CC(C)(C)NC(=O)NCc1ccccc1Cl`, the T/C under setting [8] is 96 % of control, the T/C under setting [9] was 96 % of control and the T/C under setting [10] was 100 % of control.
`C[n+]1ccc(/C=C/C(=O)Nc2ccccc2)cc1`: the T/C is 104 % of control (dose: 100.0 mg/kg/injection, schedule: Q04DX003 (ip), vehicle: Klucel (hydroxypropylcellulose) (HPC)); 108 % of control (dose: 200.0 mg/kg/injection, schedule: Q04DX003 (ip), vehicle: Klucel (hydroxypropylcellulose) (HPC)); 98 % of control (dose: 400.0 mg/kg/injection, schedule: Q04DX003 (ip), vehicle: Klucel (hydroxypropylcellulose) (HPC)).
With `O=C(Nc1ccc2ccccc2c1)Nc1ccccc1F`, the T/C is 93 % of control under setting [5], 104 % of control under setting [6] and 93 % of control under setting [7].
As to `Clc1ccccc1C=NC1CCCCC1`, the T/C under setting [22] is 96 % of control, the T/C under setting [23] is 96 % of control and the T/C under setting [24] is 93 % of control.
`Nc1nc(-c2ccccc2)[nH]c(=O)n1`: the T/C is 100 % of control under setting [5], 91 % of control under setting [6] and 93 % of control under setting [7].
For `CCCN(C(=O)N([Si](C)(C)C)S(=O)(=O)c1ccc(Cl)cc1)[Si](C)(C)C`, the T/C is 103 % of control under setting [12] and 96 % of control under setting [13].
With `CC1C(C)(C)P(=O)(NCCOP2(=O)C(C)(C)C(C)C2(C)C)C1(C)C` (configuration not stated), the T/C is 100 % of control under setting [14]; 92 % of control under setting [15]; 96 % of control (dose: 400.0 mg/kg/injection, schedule: Q04DX003 (ip), vehicle: saline).
As to `CCCCCCCCCCCCCCCCCC(CC)c1ccccc1` (configuration not stated), the T/C is, setting by setting: under setting [25], 104 % of control; under setting [26], 94 % of control; under setting [27], 94 % of control.
With `COC(=O)C(=O)CC(=O)c1ccc(Cl)cc1`, the T/C under setting [8] was 100 % of control, the T/C under setting [9] was 106 % of control and the T/C under setting [10] was 95 % of control.
Turning to `CC(=O)OC1=C(C)C2=C3OC(=O)C(C)=C3CC[C@@]2(C)CC1`, the T/C reads like this: under setting [19], 97 % of control; under setting [20], 101 % of control; under setting [21], 95 % of control.
